Experimental data as given in patent US9073855B2, “BCL-2 selective apoptosis-inducing agents for the treatment of cancer and immune diseases” (AbbVie Inc., priority 2008, dated 2015).

What was measured:
GST-Bcl-2 = GST-Bcl-2 (Homo sapiens, UniProt P10415); experiment: TR-FRET binding assay, GST-Bcl-2 with F-Bak peptide probe; conditions: for Ki: TR-FRET Binding Affinity; for Binding selectivity ratio (Bcl-XL Ki/Bcl-2 Ki): TR-FRET, Bcl-XL Ki divided by Bcl-2 Ki
Procedure, shortened: (§1)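 Ki was derived with Wang's equation for competitive binding of two ligands. The read-out was time-resolved fluorescence after a 3 h room-temperature incubation, using a Tb-labelled antibody donor and the F-Bak peptide acceptor (excitation 340/35 nm). Test compounds entered as DMSO serial dilutions starting at 50 μM, which was the 2× concentration.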

GST-Bcl-XL = GST-Bcl-XL (Homo sapiens, UniProt Q07817); experiment: TR-FRET binding assay, GST-Bcl-XL with F-Bak peptide probe; conditions: TR-FRET Binding Affinity
Procedure, shortened: as §1

GST-Bcl-XL, sequence (Q07817 whole entry): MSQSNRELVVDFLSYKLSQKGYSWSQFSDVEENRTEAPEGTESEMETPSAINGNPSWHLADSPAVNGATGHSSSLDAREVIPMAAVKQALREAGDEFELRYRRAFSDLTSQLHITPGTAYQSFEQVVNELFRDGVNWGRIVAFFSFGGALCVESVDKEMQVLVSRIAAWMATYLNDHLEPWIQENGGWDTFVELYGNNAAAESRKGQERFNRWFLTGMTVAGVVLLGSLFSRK
GST-Bcl-2, sequence (P10415 whole entry): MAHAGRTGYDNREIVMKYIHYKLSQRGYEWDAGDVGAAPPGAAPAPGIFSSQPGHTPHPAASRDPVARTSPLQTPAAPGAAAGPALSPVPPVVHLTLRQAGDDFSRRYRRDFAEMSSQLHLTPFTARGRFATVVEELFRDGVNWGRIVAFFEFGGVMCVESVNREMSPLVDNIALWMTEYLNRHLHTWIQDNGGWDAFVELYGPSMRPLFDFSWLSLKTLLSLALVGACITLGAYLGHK

SMILES: CN(C)CC(=O)N1CCO[C@H](CNc2ccc(S(=O)(=O)NC(=O)c3ccc(N4CCN(CC5=C(c6ccc(Cl)cc6)CC(C)(C)CC5)CC4)cc3Oc3cccc4[nH]cnc34)cc2[N+](=O)[O-])C1 [Example 437, 2-(1H-benzimidazol-4-yloxy)-4-(4-{[2-(4-chlorophenyl)-4,4-dimethylcyclohex-1-en-1-yl]methyl}piperazin-1-yl)-N-{[4-({[(2R)-4-(N,N-dimethylglycyl)morpholin-2-yl]methyl}amino)-3-nitrophenyl]sulfonyl}benzamide]
- Ki (GST-Bcl-2): < 0.01 nM
- Ki (GST-Bcl-XL): 0.514 nM

SMILES: CN(C)CC(=O)N1CCO[C@@H](CNc2ccc(S(=O)(=O)NC(=O)c3ccc(N4CCN(CC5=C(c6ccc(Cl)cc6)CC(C)(C)CC5)CC4)cc3Oc3cccc4[nH]cnc34)cc2[N+](=O)[O-])C1 [Example 438, 2-(1H-benzimidazol-4-yloxy)-4-(4-{[2-(4-chlorophenyl)-4,4-dimethylcyclohex-1-en-1-yl]methyl}piperazin-1-yl)-N-{[4-({[(2S)-4-(N,N-dimethylglycyl)morpholin-2-yl]methyl}amino)-3-nitrophenyl]sulfonyl}benzamide]
- Ki (GST-Bcl-2): < 0.01 nM
- Ki (GST-Bcl-XL): 0.345 nM

SMILES: CC1(C)CCC(CN2CCN(c3ccc(C(=O)NS(=O)(=O)c4ccc(NCC5CCOC5)c([N+](=O)[O-])c4)c(Oc4cccc5[nH]cnc45)c3)CC2)=C(c2ccc(Cl)cc2)C1 (stereo not shown) [Example 439, 2-(1H-benzimidazol-4-yloxy)-4-(4-{[2-(4-chlorophenyl)-4,4-dimethylcyclohex-1-en-1-yl]methyl}piperazin-1-yl)-N-({3-nitro-4-[(tetrahydrofuran-3-ylmethyl)amino]phenyl}sulfonyl)benzamide]
- Ki (GST-Bcl-2): < 0.01 nM
- Ki (GST-Bcl-XL): 15 nM

SMILES: CO[C@H]1CC[C@H](CNc2ccc(S(=O)(=O)NC(=O)c3ccc(N4CCN(CC5=C(c6ccc(Cl)cc6)CC(C)(C)CC5)CC4)cc3Oc3cccc4[nH]cnc34)cc2[N+](=O)[O-])CC1 [Example 440, Trans-2-(1H-benzimidazol-4-yloxy)-4-(4-{[2-(4-chlorophenyl)-4,4-dimethylcyclohex-1-en-1-yl]methyl}piperazin-1-yl)-N-[(4-{[(4-methoxycyclohexyl)methyl]amino}-3-nitrophenyl)sulfonyl]benzamide]
- Ki (GST-Bcl-2): < 0.01 nM
- Ki (GST-Bcl-XL): 45.5 nM

SMILES: CC1(C)CCC(CN2CCN(c3ccc(C(=O)NS(=O)(=O)c4ccc(NCC5(F)CCOCC5)c([N+](=O)[O-])c4)c(Oc4cccc5[nH]cnc45)c3)CC2)=C(c2ccc(Cl)cc2)C1 [Example 441, 2-(1H-benzimidazol-4-yloxy)-4-(4-{[2-(4-chlorophenyl)-4,4-dimethylcyclohex-1-en-1-yl]methyl}piperazin-1-yl)-N-[(4-{[(4-fluorotetrahydro-2H-pyran-4-yl)methyl]amino}-3-nitrophenyl)sulfonyl]benzamide]
- Ki (GST-Bcl-2): < 0.01 nM
- Ki (GST-Bcl-XL): 24.2 nM

SMILES: CC1(C)CCC(CN2CCN(c3ccc(C(=O)NS(=O)(=O)c4cnc(OCC5(F)CCOCC5)c(F)c4)c(Oc4cccc5[nH]cnc45)c3)CC2)=C(c2ccc(Cl)cc2)C1 [Example 442, 2-(1H-benzimidazol-4-yloxy)-4-(4-{[2-(4-chlorophenyl)-4,4-dimethylcyclohex-1-en-1-yl]methyl}piperazin-1-yl)-N-({5-fluoro-6-[(4-fluorotetrahydro-2H-pyran-4-yl)methoxy]pyridin-3-yl}sulfonyl)benzamide]
- Ki (GST-Bcl-2): < 0.01 nM
- Ki (GST-Bcl-XL): 33.6 nM

SMILES: CC1(C)CCC(CN2CCN(c3ccc(C(=O)NS(=O)(=O)c4cnc(OCC5(F)CCOCC5)c(Cl)c4)c(Oc4cccc5[nH]cnc45)c3)CC2)=C(c2ccc(Cl)cc2)C1 [Example 443, 2-(1H-benzimidazol-4-yloxy)-N-({5-chloro-6-[(4-fluorotetrahydro-2H-pyran-4-yl)methoxy]pyridin-3-yl}sulfonyl)-4-(4-{[2-(4-chlorophenyl)-4,4-dimethylcyclohex-1-en-1-yl]methyl}piperazin-1-yl)benzamide]
- Ki (GST-Bcl-2): < 0.01 nM
- Ki (GST-Bcl-XL): 19.4 nM

SMILES: CC1(C)CCC(CN2CCN(c3ccc(C(=O)NS(=O)(=O)c4cnc(OC[C@@H]5CCN(C(CF)CF)C5)c(Cl)c4)c(Oc4cccc5[nH]ncc45)c3)CC2)=C(c2ccc(Cl)cc2)C1 [Example 444, N-{[5-chloro-6-({(3R)-1-[2-fluoro-1-(fluoromethyl)ethyl]pyrrolidin-3-yl}methoxy)pyridin-3-yl]sulfonyl}-4-(4-{[2-(4-chlorophenyl)-4,4-dimethylcyclohex-1-en-1-yl]methyl}piperazin-1-yl)-2-(1H-indazol-4-yloxy)benzamide]
- Ki (GST-Bcl-2): 0.112 nM
- Binding selectivity ratio (Bcl-XL Ki/Bcl-2 Ki) (GST-Bcl-2): 727.6
- Ki (GST-Bcl-XL): 81.5 nM

SMILES: CC1(C)CCC(CN2CCN(c3ccc(C(=O)NS(=O)(=O)c4cnc(OC[C@@H]5CCN(CC(F)F)C5)c(Cl)c4)c(Oc4cccc5[nH]ncc45)c3)CC2)=C(c2ccc(Cl)cc2)C1 [Example 445, N-[(5-chloro-6-{[(3R)-1-(2,2-difluoroethyl)pyrrolidin-3-yl]methoxy}pyridin-3-yl)sulfonyl]-4-(4-{[2-(4-chlorophenyl)-4,4-dimethylcyclohex-1-en-1-yl]methyl}piperazin-1-yl)-2-(1H-indazol-4-yloxy)benzamide]
- Ki (GST-Bcl-2): 0.028 nM
- Binding selectivity ratio (Bcl-XL Ki/Bcl-2 Ki) (GST-Bcl-2): 484.2
- Ki (GST-Bcl-XL): 13.6 nM

SMILES: CO[C@H]1CC[C@H](CNc2ccc(S(=O)(=O)NC(=O)c3ccc(N4CCN(CC5=C(c6ccc(Cl)cc6)CC(C)(C)CC5)CC4)cc3Oc3cccc4[nH]ncc34)cc2[N+](=O)[O-])CC1 [Example 446, Trans-4-(4-{[2-(4-chlorophenyl)-4,4-dimethylcyclohex-1-en-1-yl]methyl}piperazin-1-yl)-2-(1H-indazol-4-yloxy)-N-[(4-{[(4-methoxycyclohexyl)methyl]amino}-3-nitrophenyl)sulfonyl]benzamide]
- Ki (GST-Bcl-2): 0.038 nM
- Binding selectivity ratio (Bcl-XL Ki/Bcl-2 Ki) (GST-Bcl-2): 508.4
- Ki (GST-Bcl-XL): 19.3 nM

SMILES: CC1(C)CCC(CN2CCN(c3ccc(C(=O)NS(=O)(=O)c4ccc(OCC5COCCO5)c([N+](=O)[O-])c4)c(Oc4cccc5[nH]ncc45)c3)CC2)=C(c2ccc(Cl)cc2)C1 (stereo not shown) [Example 447, 4-(4-{[2-(4-chlorophenyl)-4,4-dimethylcyclohex-1-en-1-yl]methyl}piperazin-1-yl)-N-{[4-(1,4-dioxan-2-ylmethoxy)-3-nitrophenyl]sulfonyl}-2-(1H-indazol-4-yloxy)benzamide]
- Ki (GST-Bcl-2): 0.028 nM
- Ki (GST-Bcl-XL): 65.8 nM

SMILES: CC1(C)CCC(CN2CCN(c3ccc(C(=O)NS(=O)(=O)c4cnc(NC5CCN(C6CC6)CC5)c(Cl)c4)c(Oc4cccc5[nH]ncc45)c3)CC2)=C(c2ccc(Cl)cc2)C1 [Example 448, N-({5-chloro-6-[(1-cyclopropylpiperidin-4-yl)amino]pyridin-3-yl}sulfonyl)-4-(4-{[2-(4-chlorophenyl)-4,4-dimethylcyclohex-1-en-1-yl]methyl}piperazin-1-yl)-2-(1H-indazol-4-yloxy)benzamide]
- Ki (GST-Bcl-2): 0.005 nM
- Binding selectivity ratio (Bcl-XL Ki/Bcl-2 Ki) (GST-Bcl-2): 3119.3
- Ki (GST-Bcl-XL): 14.6 nM

SMILES: CC1(C)CCC(CN2CCN(c3ccc(C(=O)NS(=O)(=O)c4cnc(NC5CCN(C6CC6)CC5)c(Cl)c4)c(Oc4cccc5[nH]cnc45)c3)CC2)=C(c2ccc(Cl)cc2)C1 [Example 449, 2-(1H-benzimidazol-4-yloxy)-N-({5-chloro-6-[(1-cyclopropylpiperidin-4-yl)amino]pyridin-3-yl}sulfonyl)-4-(4-{[2-(4-chlorophenyl)-4,4-dimethylcyclohex-1-en-1-yl]methyl}piperazin-1-yl)benzamide]
- Ki (GST-Bcl-2): 0.24 nM
- Binding selectivity ratio (Bcl-XL Ki/Bcl-2 Ki) (GST-Bcl-2): 74.4
- Ki (GST-Bcl-XL): 17.8 nM

SMILES: CC1(C)CCC(CN2CCN(c3ccc(C(=O)NS(=O)(=O)c4ccc(NCC5COCCO5)c([N+](=O)[O-])c4)c(Oc4cccc5[nH]cnc45)c3)CC2)=C(c2ccc(Cl)cc2)C1 (stereo not shown) [Example 450, 2-(1H-benzimidazol-4-yloxy)-4-(4-{[2-(4-chlorophenyl)-4,4-dimethylcyclohex-1-en-1-yl]methyl}piperazin-1-yl)-N-({4-[(1,4-dioxan-2-ylmethyl)amino]-3-nitrophenyl}sulfonyl)benzamide]
- Ki (GST-Bcl-2): 0.299 nM
- Binding selectivity ratio (Bcl-XL Ki/Bcl-2 Ki) (GST-Bcl-2): 107.3
- Ki (GST-Bcl-XL): 32.1 nM

SMILES: CC1(C)CCC(CN2CCN(c3ccc(C(=O)NS(=O)(=O)c4ccc(NC5CCN(C6CC6)CC5)c([N+](=O)[O-])c4)c(Oc4cccc5[nH]cnc45)c3)CC2)=C(c2ccc(Cl)cc2)C1 [Example 451, 2-(1H-benzimidazol-4-yloxy)-4-(4-{[2-(4-chlorophenyl)-4,4-dimethylcyclohex-1-en-1-yl]methyl}piperazin-1-yl)-N-({4-[(1-cyclopropylpiperidin-4-yl)amino]-3-nitrophenyl}sulfonyl)benzamide]
- Ki (GST-Bcl-2): < 0.01 nM
- Binding selectivity ratio (Bcl-XL Ki/Bcl-2 Ki) (GST-Bcl-2): 359.9
- Ki (GST-Bcl-XL): 3.6 nM

SMILES: CC1(C)CCC(CN2CCN(c3ccc(C(=O)NS(=O)(=O)c4ccc(N[C@H]5CC[C@H](N6CCOCC6)CC5)c([N+](=O)[O-])c4)c(Oc4cccc5[nH]cnc45)c3)CC2)=C(c2ccc(Cl)cc2)C1 [Example 452, Trans-2-(1H-benzimidazol-4-yloxy)-4-(4-{[2-(4-chlorophenyl)-4,4-dimethylcyclohex-1-en-1-yl]methyl}piperazin-1-yl)-N-({4-[(4-morpholin-4-ylcyclohexyl)amino]-3-nitrophenyl}sulfonyl)benzamide]
- Ki (GST-Bcl-2): < 0.01 nM
- Binding selectivity ratio (Bcl-XL Ki/Bcl-2 Ki) (GST-Bcl-2): 600.4
- Ki (GST-Bcl-XL): 6 nM

SMILES: CN1CCN(Nc2ccc(S(=O)(=O)NC(=O)c3ccc(N4CCN(CC5=C(c6ccc(Cl)cc6)CC(C)(C)CC5)CC4)cc3Oc3cccc4[nH]cnc34)cc2[N+](=O)[O-])CC1 [Example 453, 2-(1H-benzimidazol-4-yloxy)-4-(4-{[2-(4-chlorophenyl)-4,4-dimethylcyclohex-1-en-1-yl]methyl}piperazin-1-yl)-N-({4-[(4-methylpiperazin-1-yl)amino]-3-nitrophenyl}sulfonyl)benzamide]
- Ki (GST-Bcl-2): < 0.01 nM
- Binding selectivity ratio (Bcl-XL Ki/Bcl-2 Ki) (GST-Bcl-2): 363.0
- Ki (GST-Bcl-XL): 3.63 nM
